Where “and” joins values, the source holds several entries; their conditions need not be identical. Equal entries are not always repeated.
Columns and labels:
αS = αS (Homo sapiens, UniProt P37840); settings: in vitro; cited from earlier work
[1] = tested on: patients with PD and constipation; experiment: Phase 2 trial Stage 2: CNS symptoms (UPDRS, MMSE, PDHQ, BDI-II, sleep diary); assay type: in vivo, human; settings: for patients in whom hallucinations and delusions improved or disappeared during treatment: 6 patients with hallucinations (5) or delusions (1) at baseline; for UPDRS Part 1 (NMS): baseline 11.6 (6.51); for UPDRS Total: baseline 64.4 (23.72); for BDI-II: baseline 10.9 (7.12); for MMSE: baseline 28.4 (1.75)
Description: Exploratory end-points, in addition to constipation, included for example, (i) depression assessed using the Beck Depression Inventory (BDI-II) (Steer et al. 2000) and Unified Parkinson's Disease Rating Scale (UPDRS); (ii) cognition assessed using the Mini Mental State Examination (MMSE) (Palsteia et al. 2018), Unified Parkinson's Disease Rating Scale (UPDRS), and Trail Making Test (TMT); (iii) sleep and REM-behavior disorder (RBD) using a daily sleep diary, I-Button Temperature Assessment, a REM sleep behavior disorder (RBD) questionnaire (RBDQ) (Stiasny-Kolster et al. 2007), and the UPDRS; (iv) hallucinations assessed using the PD hallucinations questionnaire (PDHQ) (Papapetropoulos et al. 2008), the UPDRS, and direct questioning; (v) fatigue using the Parkinson's Disease Fatigue Scale (PFS-16) and the UPDRS; (vi) motor functions using the UPDRS; and (vii) non-motor functions using the UPDRS.
Assessments were made at baseline and at the end of the fixed dose and washout periods. Circadian system status was evaluated by continuously monitoring wrist skin temperature (Thermochron iButton DS1921H; Maxim, Dallas) following published procedures (Sarabia et al. 2008).
An exploratory analysis was done with respect to the sleep data, the body temperature data, mood, fatigue, hallucinations, cognition and other motor and non-motor symptoms of PD. Continuous measurements within a subject were compared with a paired t-test and continuous measurements between subject groups were compared with a two-group t-test. Categorical data were compared with a chi-squared test or a Fisher's exact test if the expected cell counts are too small for a chi-squared test.
CNS symptoms were evaluated at baseline and at the end of the fixed dose period and the wash-out period (Table 12). Total UPDRS score was 64.4 at baseline, 60.6 at the end of the fixed dose period and 55.7 at the end of the wash-out period (p=0.002); similarly, the motor component of the UPDRS improved from 35.3 at baseline to 33.3 at the end of fixed dose to 30.2 at the end of wash-out (p=0.006). MMSE improved from 28.4 at baseline to 28.7 during treatment and to 29.3 during wash-out (p=0.0006). […] PDHQ improved from 1.3 at baseline to 1.8 during treatment and 0.9 during wash-out (p=0.03). Hallucinations were reported by 5 patients at baseline and delusions in 1 patient. […] The frequency of arm or leg thrashing reported in the sleep diary diminished progressively from 2.2 episodes/week at baseline to 0 at maximal dose. […] Unlike stool-related indices, the improvement in many CNS symptoms persisted during wash-out.

[2] = tested on: patients with PD and constipation; experiment: Phase 2 trial Stage 1: bowel (prokinetic) response to single escalating oral doses; assay type: in vivo, human; settings: Stage 1, single oral dose
Protocol: Following successful screening, all subjects underwent a 14-day run-in period where the degree of constipation was assessed through a validated daily log (Zinsmeister et al. 2013) establishing baseline CSBMs/week. Subjects with an average of <3 CSBMs/week proceeded to dosing.
Tolerability limits included diarrhea or vomiting.

C. elegans model of PD = settings: in vivo, C. elegans (Perni et al. 2017); cited from earlier work
Solubility in water = assay type: physicochemical
[3] = tested on: patients with PD and constipation; experiment: Phase 2 trial Stage 2: adverse events; assay type: in vivo, human
Protocol: In Stage 2, 34 patients were evaluated.

[4] = Preclinical oral dosing in dogs; assay type: in vivo
[5] = Stage 2, end of fixed dose, mean (SD), n = 34
[6] = Stage 2, end of wash-out, mean (SD)
[7] = Stage 2, fixed dose, mean (SD), n = 34

Structure (SMILES): CC(C)[C@@H](CC[C@@H](C)[C@H]1CC[C@H]2[C@@H]3[C@H](O)C[C@H]4C[C@@H](NCCCNCCCCN)CC[C@]4(C)[C@H]3CC[C@]12C)OS(=O)(=O)O (single isomer, unassigned) [squalamine (ENT-01), squalamine]
- displacement of αS from membranes (αS): can displace αS from membranes
- patients in whom hallucinations and delusions improved or disappeared during treatment [1]: 5 of 6
- patients in whom hallucinations and delusions improved or disappeared during treatment ([1]; listed as ENT-01): five
- patients in whom hallucinations and delusions improved or disappeared during treatment ([1]; listed as aminosterol): five and 5 of 6
- increase of total sleep time ([1]; 7.1 hours at baseline to 8.4 hours at 250 mg): 18%
- UPDRS Part 1 (NMS) [1, 5]: 10.6 (6.18))
- UPDRS Total [1, 5]: 60.6
- UPDRS Total ([1]; Stage 2, end of fixed dose, mean (SD), n = 34, listed as Squalamine (ENT-01)): 60.6 (25.60)
- UPDRS Part 1 (NMS) [1, 6]: 9.5 (5.27)
- UPDRS Total [1, 6]: 55.7
- UPDRS Total ([1]; Stage 2, end of wash-out, mean (SD), listed as Squalamine (ENT-01)): 55.7 (23.69)
- BDI-II [1, 7]: 9.9 (6.45)
- MMSE [1, 7]: 28.7 (1.9)
- PDHQ ([1]; Stage 2, wash-out, mean (SD), baseline 1.3 (2.99)): 0.9 (2.33)
- BDI-II ([1]; Stage 2, wash-out, mean (SD)): 8.7 (5.19)
- MMSE ([1]; Stage 2, wash-out, mean (SD)): 29.3 (1.06)
- frequency of arm or leg thrashing reported in the sleep diary ([1]; at maximal dose, baseline 2.2): 0 episodes/week
- improvement of frequency of arm or leg thrashing ([1]; baseline 2.2 episodes/week to 0 at maximal dose): 100%
- improvement in depression scoring (BDI-II) ([1]; baseline 10.9 to wash-out 8.7): 20%
- improvement of UPDRS Part 1 ([1]; baseline 11.6 to wash-out 9.5, listed as aminosterol): ~20% and 18%
- improvement of total UPDRS score ([1]; baseline 64.4 to end of wash-out 55.7): 13.5%
- total sleep time versus baseline ([1]; beyond 125 mg): consistently higher than baseline
- time patient remained free of hallucinations following cessation of dosing ([1]; one patient): 1 month
- dose at which hallucinations disappeared ([1]; one patient, colonic prokinetic dose of 175 mg not reached): 100 mg
- cumulative response rate (CSBM within 24 hours of dosing) ([2]; 25 mg): 25%
- cumulative response rate (CSBM within 24 hours of dosing) ([2]; 200 mg (maximum)): 80%
- formation of aggregates of αS (C. elegans model of PD): inhibit the formation of aggregates of αS
- solubility in water (Solubility in water; neutral pH): weakly soluble
- dissolution in water (Solubility in water; pH<3.5 (the pH of gastric fluid)): readily dissolves
- AEs confined to the GI tract ([3]; Stage 2): 63%
- Diarrhea (common adverse events by dose) ([3]; Stage 2, 75 mg): 7
- Dizziness, lightheadedness included (common adverse events by dose) ([3]; Stage 2, 75 mg): 8
- Nausea (common adverse events by dose) ([3]; Stage 2, 75 mg): 3
- Diarrhea (common adverse events by dose) ([3]; Stage 2, 100 mg): 10
- Dizziness, lightheadedness included (common adverse events by dose) ([3]; Stage 2, 100 mg): 7
- Nausea (common adverse events by dose) ([3]; Stage 2, 100 mg): 12
- Diarrhea (common adverse events by dose) ([3]; Stage 2, 125 mg): 3
- Dizziness, lightheadedness included (common adverse events by dose) ([3]; Stage 2, 125 mg): 8
- Nausea (common adverse events by dose) ([3]; Stage 2, 125 mg): 4
- Diarrhea (common adverse events by dose) ([3]; Stage 2, 150 mg): 2
- Dizziness, lightheadedness included (common adverse events by dose) ([3]; Stage 2, 150 mg): 2
- Nausea (common adverse events by dose) ([3]; Stage 2, 150 mg): 11
- Diarrhea (common adverse events by dose) ([3]; Stage 2, 175 mg): 1
- Dizziness, lightheadedness included (common adverse events by dose) ([3]; Stage 2, 175 mg): 0
- Nausea (common adverse events by dose) ([3]; Stage 2, 175 mg): 12
- Diarrhea (common adverse events by dose) ([3]; Stage 2, 200 mg): 3
- Nausea (common adverse events by dose) ([3]; Stage 2, 200 mg): 6
- Diarrhea (common adverse events by dose) ([3]; Stage 2, 225 mg): 3
- Nausea (common adverse events by dose) ([3]; Stage 2, 225 mg): 1
- Diarrhea (common adverse events by dose) ([3]; Stage 2, 250 mg): 2
- patients with diarrhea ([3]; Stage 2, 15/34 patients): 44%
- patients with nausea ([3]; Stage 2, 18/34 patients): 52.9%
- Abdominal pain, Mild ([3]; Stage 2, 34 dosed): 4 (11.7) n, %
- Abdominal pain, Moderate ([3]; Stage 2, 34 dosed): 2 (5.8) n, %
- Blood in urine, Mild ([3]; Stage 2, 34 dosed): 0 n, %
- Blood in urine, Moderate ([3]; Stage 2, 34 dosed): 0 n, %
- Diarrhea, Mild ([3]; Stage 2, 34 dosed): 12 (35) n, %
- Diarrhea, Moderate ([3]; Stage 2, 34 dosed): 2 (5.8) n, %
- Diarrhea, Severe ([3]; Stage 2, 34 dosed): 1 (2.9) n, %
- Difficulty falling asleep, Mild ([3]; Stage 2, 34 dosed): 1 (3) n, %
- Difficulty falling asleep, Moderate ([3]; Stage 2, 34 dosed): 0 n, %
- Dizziness, Mild ([3]; Stage 2, 34 dosed): 7 (20.5) n, %
- Dizziness, Moderate ([3]; Stage 2, 34 dosed): 1 (2.9) n, %
- Eye infection, Mild ([3]; Stage 2, 34 dosed): 1 (3) n, %
- Eye infection, Moderate ([3]; Stage 2, 34 dosed): 0 n, %
- Flatulence, Mild ([3]; Stage 2, 34 dosed): 1 (3) n, %
- Flatulence, Moderate ([3]; Stage 2, 34 dosed): 0 n, %
- Headache, Mild ([3]; Stage 2, 34 dosed): 3 (8.8) n, %
- Headache, Moderate ([3]; Stage 2, 34 dosed): 0 n, %
- Increased urinary frequency, Mild ([3]; Stage 2, 34 dosed): 2 (5.8) n, %
- Increased urinary frequency, Moderate ([3]; Stage 2, 34 dosed): 0 n, %
- Loss of appetite, Mild ([3]; Stage 2, 34 dosed): 0 n, %
- Loss of appetite, Moderate ([3]; Stage 2, 34 dosed): 0 n, %
- Nausea, Mild ([3]; Stage 2, 34 dosed): 18 (52) n, %
- Nausea, Moderate ([3]; Stage 2, 34 dosed): 1 (2.9) n, %
- Skin lesions-rash, Mild ([3]; Stage 2, 34 dosed): 3 (8.8) n, %
- Skin lesions-rash, Moderate ([3]; Stage 2, 34 dosed): 0 n, %
- Urinary retention, Mild ([3]; Stage 2, 34 dosed): 1 (3) n, %
- Urinary retention, Moderate ([3]; Stage 2, 34 dosed): 0 n, %
- Urinary tract infection, Mild ([3]; Stage 2, 34 dosed): 1 (3) n, %
- Urinary tract infection, Moderate ([3]; Stage 2, 34 dosed): 2 (5.8) n, %
- Vomiting, Mild ([3]; Stage 2, 34 dosed): 2 (5.8) n, %
- Vomiting, Moderate ([3]; Stage 2, 34 dosed): 0 n, %
- Worsening acid reflux, Mild ([3]; Stage 2, 34 dosed): 4 (11.7) n, %
- Worsening acid reflux, Moderate ([3]; Stage 2, 34 dosed): 0 n, %
- Worsening hemorrhoid, Mild ([3]; Stage 2, 34 dosed): 1 (3) n, %
- Worsening hemorrhoid, Moderate ([3]; Stage 2, 34 dosed): 0 n, %
- patients terminated prior to completion because of recurrent dizziness ([3]; Stage 2, two patients): 5.8%
- Lower GI bleed, Severe ([3]; Stage 2, colonic diverticulosis, polyp, patient on aspirin, Plavix and naproxen, unrelated to ENT-01): 1 (2.5) n, %
- bioavailability [4]: limited bioavailability
- tolerability [4]: well tolerated
- oral bioavailability ([4]; preclinical studies): about 0.1%

Source: patent publication US20200038412A1, “METHODS OF TREATING ALZHEIMER'S DISEASE USING AMINOSTEROL COMPOSITIONS” (Enterin, Inc., priority 2018, published 2020)
